Reference: PMC7271024, “N1-Benzofused Modification of Fluoroquinolones Reduces Activity Against Gram-Negative Bacteria” (ACS Omega, 2020)
In brackets after ≈: the same amount, converted by molar mass.

Tests used:
[1] = test system: panel of Gram-negative pathogens; experiment: MIC panel, statements across strains; format: cell-based, K. pneumoniae, A. baumannii, P. aeruginosa, E. coli; conditions: versus ciprofloxacin
Procedure: (§1) The antibacterial activities of the synthesized fluoroquinolones were evaluated against a panel of Gram-negative pathogens including K. pneumoniae (NCTC 13368, M6), Acinetobacter baumannii (AYE, ATCC 17978), Pseudomonas aeruginosa (PAO1, NCTC 13437), and Escherichia coli (NCTC 12923, LEC001). The ability of molecules to permeate the Gram-negative outer membrane was investigated by adding membrane permeabilizer polymyxin B nonapeptide (PMBN) at sub-inhibitory concentrations (Table 2). Phenylalanine–arginine β-naphthylamide (PAβN) was used to investigate efflux of compounds by resistance–nodulation–division (RND)-family efflux pumps (Table 3).
(§2) Minimal inhibitory concentrations (MICs) were determined using the microdilution broth method. Briefly, compounds were added to the first two columns of a 96-well plate and diluted two-fold down the plate in tryptic soy broth. Overnight cultures of bacteria were then adjusted to a concentration of 1 × 10^6 CFU/mL and added to each well for a final concentration of 5 × 10^5 CFU/mL.

K. pneumoniae M6 = experiment: MIC, microdilution broth method; format: cell-based, Klebsiella pneumoniae; conditions: for MIC: Klebsiella pneumoniae
P. aeruginosa DNA gyrase = biological target: T1, P. aeruginosa DNA gyrase (Pseudomonas aeruginosa, UniProt P48372+Q9I7C2); experiment: Cell-free gyrase supercoiling inhibition assay; format: biochemical; conditions: purified enzyme, cell-free supercoiling kit
T1 construct: purchased Inspiralis (Norwich, UK) PAS001

P. aeruginosa NCTC 13437 = experiment: MIC, microdilution broth method; format: cell-based, Pseudomonas aeruginosa; conditions: Pseudomonas aeruginosa
Procedure: as §1, §2

[2] = Solubility as observed in the MIC and enzyme experiments; format: physicochemical; conditions: S. aureus DNA gyrase / topoisomerase IV assay media, at the high concentrations required
Procedure: In vitro activity assays using purified S. aureus, E. coli and P. aeruginosa DNA gyrase, and S. aureus topoisomerase IV enzymes were performed in order to evaluate whether the gains in inhibitory activity predicted for the benzofused compounds were accurate. The benzothiophene-containing 6e was selected as a representative compound for the purposes of this experiment. […].
A general correlation between N1 substituent hydrophobicity and activity is observed; […].

E. coli NCTC 12923 = experiment: MIC, microdilution broth method; format: cell-based, Escherichia coli; conditions: for MIC: Escherichia coli
P. aeruginosa PAO1 = experiment: MIC, microdilution broth method; format: cell-based, Pseudomonas aeruginosa; conditions: Pseudomonas aeruginosa
E. coli DNA gyrase = biological target: T2, E. coli DNA gyrase (Escherichia coli, UniProt P0AES4+P0AES6); experiment: Cell-free gyrase supercoiling inhibition assay; format: biochemical; conditions: purified enzyme, cell-free supercoiling kit
T2 construct: purchased Inspiralis (Norwich, UK) K0001

A. baumannii ATCC 17978 = experiment: MIC, microdilution broth method; format: cell-based, Acinetobacter baumannii; conditions: for MIC: Acinetobacter baumannii
K. pneumoniae NCTC 13368 = experiment: MIC, microdilution broth method; format: cell-based, Klebsiella pneumoniae; conditions: for MIC: Klebsiella pneumoniae
Procedure: as §1, §2

A. baumannii AYE = experiment: MIC, microdilution broth method; format: cell-based, Acinetobacter baumannii; conditions: for MIC: Acinetobacter baumannii
Procedure: as §1, §2

E. coli LEC001 = experiment: MIC, microdilution broth method; format: cell-based, Escherichia coli; conditions: for MIC: Escherichia coli
Procedure: as §1, §2

[3] = RND-family efflux inhibitor PAβN
[4] = PAβN, text names A. baumannii only

T2 sequence (P0AES4 whole entry, one chain of several): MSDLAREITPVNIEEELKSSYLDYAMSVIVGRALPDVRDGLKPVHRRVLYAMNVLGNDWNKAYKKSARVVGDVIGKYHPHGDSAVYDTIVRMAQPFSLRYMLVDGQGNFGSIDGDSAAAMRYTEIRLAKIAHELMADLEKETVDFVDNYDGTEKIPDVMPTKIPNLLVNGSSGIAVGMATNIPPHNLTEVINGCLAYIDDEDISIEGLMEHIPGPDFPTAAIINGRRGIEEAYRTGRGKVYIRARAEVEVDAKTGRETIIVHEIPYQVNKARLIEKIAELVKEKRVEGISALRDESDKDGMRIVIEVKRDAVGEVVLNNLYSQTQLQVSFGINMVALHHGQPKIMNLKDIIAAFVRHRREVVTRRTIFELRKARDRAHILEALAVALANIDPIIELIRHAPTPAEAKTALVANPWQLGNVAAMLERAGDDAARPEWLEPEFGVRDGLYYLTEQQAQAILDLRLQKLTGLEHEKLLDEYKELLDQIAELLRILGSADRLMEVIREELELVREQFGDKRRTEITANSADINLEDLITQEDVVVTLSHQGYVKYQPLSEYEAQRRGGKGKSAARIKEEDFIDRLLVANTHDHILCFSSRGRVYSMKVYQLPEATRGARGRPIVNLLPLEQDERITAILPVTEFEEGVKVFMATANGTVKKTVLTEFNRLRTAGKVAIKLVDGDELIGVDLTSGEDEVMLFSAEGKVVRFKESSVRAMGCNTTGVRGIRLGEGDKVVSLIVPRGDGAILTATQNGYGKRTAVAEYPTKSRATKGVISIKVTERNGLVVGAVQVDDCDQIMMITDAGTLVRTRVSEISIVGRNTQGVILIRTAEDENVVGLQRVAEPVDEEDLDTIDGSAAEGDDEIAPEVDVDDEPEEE
T1 sequence (Q9I7C2 whole entry): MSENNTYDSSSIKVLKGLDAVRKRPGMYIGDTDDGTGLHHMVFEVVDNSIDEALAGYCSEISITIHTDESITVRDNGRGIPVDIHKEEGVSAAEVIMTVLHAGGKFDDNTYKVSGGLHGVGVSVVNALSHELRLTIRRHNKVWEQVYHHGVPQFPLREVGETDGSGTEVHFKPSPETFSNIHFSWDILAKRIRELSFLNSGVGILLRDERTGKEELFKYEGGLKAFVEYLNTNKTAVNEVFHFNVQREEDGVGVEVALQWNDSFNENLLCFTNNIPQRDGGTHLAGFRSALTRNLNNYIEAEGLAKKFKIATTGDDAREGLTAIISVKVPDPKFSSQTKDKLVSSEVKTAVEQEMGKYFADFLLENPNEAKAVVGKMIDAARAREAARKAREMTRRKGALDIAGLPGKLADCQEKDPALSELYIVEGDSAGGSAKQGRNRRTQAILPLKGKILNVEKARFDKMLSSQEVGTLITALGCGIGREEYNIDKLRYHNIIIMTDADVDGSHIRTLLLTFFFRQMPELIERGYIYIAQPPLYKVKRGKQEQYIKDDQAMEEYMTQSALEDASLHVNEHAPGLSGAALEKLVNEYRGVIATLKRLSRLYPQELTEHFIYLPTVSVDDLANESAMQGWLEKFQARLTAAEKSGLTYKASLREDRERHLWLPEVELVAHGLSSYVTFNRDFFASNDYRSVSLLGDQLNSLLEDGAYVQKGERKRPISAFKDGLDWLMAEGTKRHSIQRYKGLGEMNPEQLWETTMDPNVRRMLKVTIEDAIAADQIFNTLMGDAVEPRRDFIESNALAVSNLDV
T1 sequence (P48372 whole entry): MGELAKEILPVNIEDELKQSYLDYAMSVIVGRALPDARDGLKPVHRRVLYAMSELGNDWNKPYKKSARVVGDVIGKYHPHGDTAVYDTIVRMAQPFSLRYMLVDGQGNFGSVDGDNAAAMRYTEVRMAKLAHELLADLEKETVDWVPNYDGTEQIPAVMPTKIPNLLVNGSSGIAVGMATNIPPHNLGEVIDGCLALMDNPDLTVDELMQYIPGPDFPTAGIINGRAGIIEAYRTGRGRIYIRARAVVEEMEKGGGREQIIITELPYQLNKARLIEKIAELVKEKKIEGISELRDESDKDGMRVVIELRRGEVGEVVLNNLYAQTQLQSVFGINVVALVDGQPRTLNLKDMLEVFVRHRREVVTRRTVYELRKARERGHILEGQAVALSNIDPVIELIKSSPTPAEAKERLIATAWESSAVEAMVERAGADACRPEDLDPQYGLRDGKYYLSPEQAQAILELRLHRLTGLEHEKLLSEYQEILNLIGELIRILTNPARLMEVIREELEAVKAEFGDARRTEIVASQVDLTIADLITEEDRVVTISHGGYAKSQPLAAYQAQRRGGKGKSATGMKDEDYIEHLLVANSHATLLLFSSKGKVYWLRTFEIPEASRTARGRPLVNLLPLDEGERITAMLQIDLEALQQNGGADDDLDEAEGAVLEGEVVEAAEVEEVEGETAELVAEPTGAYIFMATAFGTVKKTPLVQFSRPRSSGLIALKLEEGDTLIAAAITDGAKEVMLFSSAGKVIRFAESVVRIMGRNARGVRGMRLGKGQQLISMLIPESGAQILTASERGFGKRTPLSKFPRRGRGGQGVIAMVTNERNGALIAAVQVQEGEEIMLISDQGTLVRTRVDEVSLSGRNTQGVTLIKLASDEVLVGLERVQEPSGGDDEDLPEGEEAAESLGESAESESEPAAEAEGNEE

SMILES: O=C(O)c1cn(-c2cccc3ccsc23)c2cc(N3CCNCC3)c(F)cc2c1=O [Compound 6e]
- antibacterial activity [1]: limited activity
- MIC (K. pneumoniae M6; M6, +PAβN (25 μg/mL), Table 3, strain S): 1 µg/mL (≈ 2.36 µM)
- MIC (K. pneumoniae M6; M6, +PMBN (30 μg/mL), ciprofloxacin-sensitive strain (S)): 2 µg/mL (≈ 4.72 µM)
- MIC (K. pneumoniae M6; M6, –PAβN, Table 3, strain S): 8 µg/mL (≈ 18.9 µM)
- MIC (K. pneumoniae M6; M6, –PMBN, ciprofloxacin-sensitive strain (S)): 8 µg/mL (≈ 18.9 µM)
- potentiation of MIC by PMBN (K. pneumoniae M6; MIC –PMBN vs +PMBN): 2–4 fold
- effect of PAβN on MIC (K. pneumoniae M6; [3]): significant potentiation
- IC50 (P. aeruginosa DNA gyrase): 15.8 µM
- MIC (P. aeruginosa NCTC 13437; NCTC13437, +PAβN (25 μg/mL), Table 3, strain R): > 32 µg/mL
- MIC (P. aeruginosa NCTC 13437; NCTC13437, +PMBN (30 μg/mL), ciprofloxacin-resistant strain (R)): 32 µg/mL (≈ 75.6 µM)
- MIC (P. aeruginosa NCTC 13437; NCTC13437, –PAβN, Table 3, strain R): > 32 µg/mL
- MIC (P. aeruginosa NCTC 13437; NCTC13437, –PMBN, ciprofloxacin-resistant strain (R)): > 32 µg/mL
- solubility in assay media [2]: poorly soluble
- MIC (E. coli NCTC 12923; NCTC12923, +PAβN (25 μg/mL), Table 3, strain S): 0.25 µg/mL (≈ 0.59 µM)
- MIC (E. coli NCTC 12923; NCTC12923, +PMBN (30 μg/mL), ciprofloxacin-sensitive strain (S)): 1 µg/mL (≈ 2.36 µM)
- MIC (E. coli NCTC 12923; NCTC12923, –PAβN, Table 3, strain S): 0.25 to 2 µg/mL (≈ 0.59 to 4.72 µM)
- MIC (E. coli NCTC 12923; NCTC12923, –PMBN, ciprofloxacin-sensitive strain (S)): 4 µg/mL (≈ 9.45 µM)
- effect of PAβN on MIC (E. coli NCTC 12923; PAβN, text names E. coli only): No effect
- MIC (P. aeruginosa PAO1; PAO1, +PAβN (25 μg/mL), Table 3, strain S): 2 µg/mL (≈ 4.72 µM)
- MIC (P. aeruginosa PAO1; PAO1, +PMBN (30 μg/mL), ciprofloxacin-sensitive strain (S)): 2 µg/mL (≈ 4.72 µM)
- MIC (P. aeruginosa PAO1; PAO1, –PAβN, Table 3, strain S): 32 µg/mL (≈ 75.6 µM)
- MIC (P. aeruginosa PAO1; PAO1, –PMBN, ciprofloxacin-sensitive strain (S)): 32 µg/mL (≈ 75.6 µM)
- IC50 (E. coli DNA gyrase): 6.38 µM
- MIC (A. baumannii ATCC 17978; ATCC17978, +PAβN (25 μg/mL), Table 3, strain S): 4 µg/mL (≈ 9.45 µM)
- MIC (A. baumannii ATCC 17978; ATCC17978, +PMBN (30 μg/mL), ciprofloxacin-sensitive strain (S)): 4 µg/mL (≈ 9.45 µM)
- MIC (A. baumannii ATCC 17978; ATCC17978, –PAβN, Table 3, strain S): 4 µg/mL (≈ 9.45 µM)
- MIC (A. baumannii ATCC 17978; ATCC17978, –PMBN, ciprofloxacin-sensitive strain (S)): 8 µg/mL (≈ 18.9 µM)
- potentiation of MIC by PMBN (A. baumannii ATCC 17978; MIC –PMBN vs +PMBN): 2 fold
- effect of PAβN on MIC (A. baumannii ATCC 17978; [4]): Neither ciprofloxacin nor compound 6e showed any difference in MIC
- MIC (K. pneumoniae NCTC 13368; NCTC13368, +PAβN (25 μg/mL), Table 3, strain R): 4 µg/mL (≈ 9.45 µM)
- MIC (K. pneumoniae NCTC 13368; NCTC13368, +PMBN (30 μg/mL), ciprofloxacin-resistant strain (R)): 8 µg/mL (≈ 18.9 µM)
- MIC (K. pneumoniae NCTC 13368; NCTC13368, –PAβN, Table 3, strain R): > 32 µg/mL
- MIC (K. pneumoniae NCTC 13368; NCTC13368, –PMBN, ciprofloxacin-resistant strain (R)): 32 µg/mL (≈ 75.6 µM)
- potentiation of MIC by PMBN (K. pneumoniae NCTC 13368; MIC –PMBN vs +PMBN): 4–8 fold
- effect of PAβN on MIC (K. pneumoniae NCTC 13368; [3]): significant potentiation
- MIC (A. baumannii AYE; +PAβN (25 μg/mL), Table 3, strain R): > 32 µg/mL
- MIC (A. baumannii AYE; +PMBN (30 μg/mL), ciprofloxacin-resistant strain (R)): > 32 µg/mL
- MIC (A. baumannii AYE; –PAβN, Table 3, strain R): > 32 µg/mL
- MIC (A. baumannii AYE; –PMBN, ciprofloxacin-resistant strain (R)): > 32 µg/mL
- effect of PAβN on MIC (A. baumannii AYE; [4]): Neither ciprofloxacin nor compound 6e showed any difference in MIC
- MIC (E. coli LEC001; LEC001, +PAβN (25 μg/mL), Table 3, strain R): > 32 µg/mL
- MIC (E. coli LEC001; LEC001, +PMBN (30 μg/mL), ciprofloxacin-resistant strain (R)): > 32 µg/mL
- MIC (E. coli LEC001; LEC001, –PAβN, Table 3, strain R): > 32 µg/mL
- MIC (E. coli LEC001; LEC001, –PMBN, ciprofloxacin-resistant strain (R)): > 32 µg/mL
- effect of PAβN on MIC (E. coli LEC001; PAβN, text names E. coli only): No effect
